Measurements published in ChEMBL document CHEMBL1201862, “PubChem BioAssay data set” (2004).
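Grown in 96-well plates, cells were treated for 48 hours with each compound at five concentrations. Insufficient inhibition: endpoint recorded as highest concentration tested. The concentration for 50% growth inhibition is given as GI50.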 Calls of active or inactive are those of the source. No stated cut-off is given here; in the data, active = GI50 up to about 1.1 µM and inactive = higher.

How the values were obtained:
Assay in all cases: DTP human tumour cell line panel, 48 h
OVCAR-3 = system: OVCAR-3
SK-MEL-28 = system: SK-MEL-28
A549 = system: A549
MDA-MB-435 = system: MDA-MB-435
NCI-H460 = system: NCI-H460
ACHN = system: ACHN
UACC-257 = system: UACC-257
HCT-15 = system: HCT-15
SK-MEL-5 = system: SK-MEL-5
KM12 = system: KM12
SF-295 = system: SF-295
SW-620 = system: SW-620
Hs-578T = system: Hs-578T
HL-60 = system: HL-60
U-251 = system: U-251
NCI-H23 = system: NCI-H23
EKVX = system: EKVX
SF-539 = system: SF-539
NCI-H522 = system: NCI-H522
SNB-75 = system: SNB-75

Row | SMILES | GI50 (OVCAR-3) | GI50 (SK-MEL-28) | GI50 (A549) | GI50 (MDA-MB-435) | GI50 (NCI-H460) | GI50 (ACHN) | GI50 (UACC-257) | GI50 (HCT-15) | GI50 (SK-MEL-5) | GI50 (KM12) | GI50 (SF-295) | GI50 (SW-620) | GI50 (Hs-578T) | GI50 (HL-60) | GI50 (U-251) | GI50 (NCI-H23) | GI50 (EKVX) | GI50 (SF-539) | GI50 (NCI-H522) | GI50 (SNB-75)
1 | NC(Cc1ccc(OCc2ccccc2)cn1)C(=O)O (configuration not stated) | > 100 µM (inactive) | > 100 µM (inactive) | > 100 µM (inactive) | > 100 µM (inactive) | > 100 µM (inactive) | > 100 µM (inactive) | > 100 µM (inactive) | > 100 µM | > 100 µM (inactive) | > 100 µM (inactive) | > 100 µM (inactive) | > 100 µM (inactive) | > 100 µM (inactive) | > 100 µM (inactive) | > 100 µM (inactive) | > 100 µM (inactive) | > 100 µM (inactive) | > 100 µM (inactive) | > 100 µM (inactive) | 
2 | O=c1c2ncn(CCCl)c2n(-c2ccccc2)c(=S)n1-c1ccccc1 | > 100 µM (inactive) | > 100 µM (inactive) | > 100 µM (inactive) | > 100 µM (inactive) | > 100 µM (inactive) | > 100 µM (inactive) | > 100 µM (inactive) | > 100 µM | > 100 µM (inactive) | > 100 µM (inactive) | > 100 µM (inactive) | > 100 µM (inactive) | 69.5 µM (inactive) | > 100 µM (inactive) | > 100 µM (inactive) | > 100 µM (inactive) | > 100 µM (inactive) | > 100 µM (inactive) | > 100 µM (inactive) | 
3 | COc1cc(C2C3=C(COC3=O)OC(C)(C)Oc3cc4c(cc32)OCO4)cc(OC)c1O (configuration not stated) | 0.437 µM (active) | 0.973 µM (active) | 0.944 µM (active) | 0.217 µM (active) | 0.643 µM (active) | 0.851 µM (active) | 5.14 µM (inactive) | 0.873 µM | 0.246 µM (active) | 0.531 µM (active) | 0.232 µM (active) | 0.608 µM (active) | 1.56 µM (inactive) | 0.291 µM (active) | 0.966 µM (active) | 1.86 µM (inactive) | 4.12 µM (inactive) | 0.467 µM (active) | 0.244 µM (active) | 
4 | CC(Br)C(=O)c1ccc2cc(Br)c3ccccc3c2c1 (configuration not stated) | 12.1 µM (inactive) | 18.6 µM (inactive) | 20 µM (inactive) | 14.5 µM (inactive) | 16 µM (inactive) | 17.6 µM (inactive) | 16.9 µM (inactive) | 16.6 µM | 14 µM (inactive) | 17.2 µM (inactive) | 16.4 µM (inactive) | 6.01 µM (inactive) | 23.1 µM (inactive) | 12 µM (inactive) | 13.7 µM (inactive) | 16 µM (inactive) | 14.4 µM (inactive) |  | 3.97 µM (inactive) | 15.2 µM (inactive)
5 | CCOC(=O)C1c2[nH]c3ccccc3c2CCN1C(=O)c1ccco1 (configuration not stated) | > 10 µM (inactive) | > 10 µM (inactive) | > 10 µM (inactive) | > 10 µM (inactive) |  | > 10 µM (inactive) | > 10 µM (inactive) | > 10 µM | > 10 µM (inactive) | > 10 µM (inactive) | > 10 µM (inactive) | > 10 µM (inactive) | > 10 µM (inactive) | > 10 µM (inactive) | > 10 µM (inactive) |  | > 10 µM (inactive) | > 10 µM (inactive) |  | > 10 µM (inactive)
6 | N/C(=N\O)N/N=C/c1cc(I)cc(I)c1O | 2.2 µM (inactive) | 49.2 µM (inactive) | 49.3 µM (inactive) | 69.5 µM (inactive) | 35.2 µM (inactive) | 24.1 µM (inactive) | 52.2 µM (inactive) | 5.37 µM | 30.6 µM (inactive) | > 100 µM (inactive) | 50.4 µM (inactive) | > 100 µM (inactive) | > 100 µM (inactive) | 13.2 µM (inactive) | 34.8 µM (inactive) | 28 µM (inactive) | 58.3 µM (inactive) | 29.7 µM (inactive) | 80.5 µM (inactive) | 
